Test results as given in patent US6506789B2, “Methods for the treatment of itching comprising administering PGD2 receptor antagonist” (Shionogi & Co., Ltd., priority 1998, dated 2003).
Marks after values point to notes of the source that are not given here.

Tests used:
[1] = biological target: T1, PGD2 receptor (Homo sapiens, UniProt Q13258); experiment: Binding to PGD2 receptor ([3H]PGD2, human platelet membrane fraction); settings: 5 nM [3H]PGD2, 4° C., 90 min, read-out: IC50 (concentration required for 50% inhibition of [3H]PGD2 binding)
T1 construct: The platelets mere homogenized using a homogenizer (Ultra-Turrax) followed by centrifugation 3 times at 20,000 rpm, 10 min at 4° C. to obtain a platelet membrane fraction; from tissue; host or cells: human platelets from venous blood of healthy volunteers (membrane fraction)
T1 sequence (Q13258 1-359): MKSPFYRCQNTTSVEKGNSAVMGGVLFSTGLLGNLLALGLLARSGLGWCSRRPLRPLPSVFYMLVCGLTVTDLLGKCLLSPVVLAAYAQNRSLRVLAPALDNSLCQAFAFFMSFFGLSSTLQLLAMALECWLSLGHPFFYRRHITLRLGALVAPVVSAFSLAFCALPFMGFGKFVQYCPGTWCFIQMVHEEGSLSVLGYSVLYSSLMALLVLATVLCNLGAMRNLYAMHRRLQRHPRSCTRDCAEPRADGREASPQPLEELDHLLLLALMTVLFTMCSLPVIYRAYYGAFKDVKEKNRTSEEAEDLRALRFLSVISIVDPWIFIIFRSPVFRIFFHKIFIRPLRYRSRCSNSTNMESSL
Procedure: (1) Preparation of Human Platelet Membrane Fraction
Blood sample was obtained using a plastic syringe containing 3.8% sodium citrate from the vein of healthy volunteers (adult male and female), put into a plastic test tube and mixed gently by rotation. The sample was then centrifuged at 1800 rpm, 10 min at room temperature and the supernatant containing PRP (platelet-rich plasma) was collected. The PRP was re-centrifuged at 2300 rpm, 22 min at room temperature to obtain platelets. The platelets mere homogenized using a homogenizer (Ultra-Turrax) followed by centrifugation 3 times at 20,000 rpm, 10 min at 4° C. to obtain a platelet membrane fraction. After protein determination, the membrane fraction was adjusted to 2 mg/ml and preserved in a refrigerator at −80° C. until use.
(2) Binding to PGD2 Receptor
To a binding-reaction solution (50 mM Tris/HCl, pH 7.4, 5 mM MgCl2) (0.2 ml) were added the human platelet membrane fraction (0.1 mg) and 5 nM [^3H]PGD2 (115 Ci/mmol). After reacting at 4° C. for 90 min, the mixture was filtered through a glass fiber filter paper and washed several times with cooled saline, to measure the radioactivity retained on the filter paper. The specific binding was calculated by subtracting the non-specific binding (the binding in the presence of 10 μM PGD2) from the total binding. The inhibitory activity of each compound was expressed as the concentration required for 50% inhibition (IC50), which was determined by depicting a substitution curve by plotting the binding ratio (%) in the presence of each compound, where the binding ratio in the absence of a test compound is 100%.

[2] = system: itching caused by antigens; settings: J. Pharmacol. Exp. Ther., 279, 137-142, 1996; cited from earlier work
[3] = system: PGD2-induced itching; settings: guinea pig; J. Pharmacol. Exp. Ther., 279, 137-142, 1996; cited from earlier work
[4] = system: Compound 48/80-induced scratching behavior; experiment: Mouse pruritus model: compound 48/80-induced scratching behavior; assay type: in vivo
Procedure: Investigation on Itch-Related Scratching Behavior in Mouse Pruritus Model: Effect on Compound 48/80-Induced Scratching Behavior Compound 48/80 (10 μg/site, Sigma), a non-immunological mast cell activator, was dissolved in physiological saline and subcutaneously injected into the rostral part of the back of female C57BL mice (8-12 weeks of age, Charles River Japan Inc.). […] Mice usually scratched several times successively in one behavior and a series of scratching was counted as one incidence. Compound Treatment Compound (IA-a-5), suspended in 0.5% methylcellulose, was orally administered 1 hour before the injection of compound 48/80 at a dose of 300 mg/kg. As a control, mice were treated with 0.5% methlycellulose. Results were shown in Table 16. *: P<0.05 versus control (Wilcoxon test).

[5] = system: Antigen-induced scratching behavior; experiment: Mouse pruritus model: antigen-induced scratching behavior; assay type: in vivo; settings: female C57BL mice, observed 15 minutes, n = 7, control 51.6 ± 5.3
Procedure: Investigation on Itch-Related Scratching Behavior in Mouse Pruritus Model: Effect on Antigen-Induced Scratching Behavior 50 μl of diluted anti-benzylpenicilloyl (BPO) IgE monoclonal antibody was intradermally injected to the rostral part of the back skin of female C57BL (Table 17, 8-12 weeks of age, Charles River Japan Inc.) or male DS-Nh (Table 18, 7-8 weeks of age, Aburahi Laboratories, Shionogi & Co., Ltd.) mice. Twenty-four hours later, scratching behavior was induced by intravenously injection of physiological saline containing 1 mg of BPO-guinea pig serum albumin. […] In Table 17, the compound was treated in the same manner described in above 1). In Table 18, the compound were dissolved in physiological saline and intraperitoneally injected 30 minutes before antigen challenge. *: P<0.05, **: P<0.01 versus control (Dunnett's test).

IC50 [1] [nM] | Structure (SMILES) | other results
1.2 | CC1(C)[C@H]2C[C@H](C/C=C/CCCC(=O)O)[C@@H](NC(=O)c3csc4ccc(O)cc34)[C@@H]1C2 (single isomer, unassigned) [IA-a-18] | –
– | O=C(O)CCCCCCC1C(=O)N(Cc2ccccc2)C(=O)N1NCC(O)C1CCCCC1 (stereo not drawn) [BWA868C] | inhibition of itching caused by antigens [2]: can not inhibit; inhibition of itching induced by instillation of PGD2 [3]: inhibited
– | CC1(C)[C@H]2C[C@H](C/C=C\CCCC(=O)O)[C@@H](NC(=O)c3csc4ccc(O)cc34)[C@@H]1C2 [IA-a-5, (5Z)-7-[(1R,2R,3S,5S)-2-(5-hydroxybenzo[b]thiophen-3-yl-carbonylamino)-6,6-dimethylbicyclo[3.1.1]hept-3-yl]-5-heptenoic acid] | scratching caused by skin itching derived from the activation of mast cell, compared with the control group ([4]; Experiment 2, summary in words): reduced; Mean ± S.E. (Number of scratching) ([4]; female C57BL mice, 300 mg/kg orally 1 hour before compound 48/80, observed 30 minutes, n = 10, control 122.2 ± 12.7): 81.8 ± 17.9*; Mean ± S.E. (Number of scratching) ([5]; 100 mg/kg orally): 48.4 ± 12.4; Mean ± S.E. (Number of scratching) ([5]; 300 mg/kg orally): 19.6 ± 6.5*
0.27 | CC1(C)[C@H]2C[C@H](C/C=C\CCCC(=O)O)[C@@H](NC(=O)c3csc4ccc(F)cc34)[C@@H]1C2 [IA-a-11] | –
32 | CC1(C)[C@H]2C[C@H](C/C=C/CCCC(=O)O)[C@@H](NC(=O)c3csc4ccc(O)cc34)[C@@H]1C2 [IA-a-17, (5E)-7-[(1R,2R,3S,5S)-2-(5-hydroxybenzo[b]thiophen-3-yl-carbonylamino)-6,6-dimethylbicyclo[3.1.1]hept-3-yl]-5-heptenoic Acid] | –
28 | CC1(C)[C@H]2C[C@@H](C/C=C\CCCC(=O)O)[C@@H](NC(=O)c3csc4ccc(O)cc34)[C@@H]1C2 [IA-c-1] | –
1 | CC1(C)[C@H]2C[C@@H](C/C=C/CCCC(=O)O)[C@@H](NC(=O)c3csc4ccc(O)cc34)[C@@H]1C2 [IA-c-2] | –
37 | CC1(C)[C@H]2C[C@H](NC(=O)c3csc4ccc(F)cc34)[C@@H](C/C=C\CCCC(=O)O)[C@@H]1C2 [IB-a′-2] | –
